Marks after values point to notes of the source that are not given here.
Assays:
Plasmopara viticola = assay: Test D: grape downy mildew, spray after inoculation of grape seedlings; type: in vivo
Description: Upon removal, disease ratings were made. […] A dash (-) indicates no test results.

Pythium aphanidermatum = assay: Test A: bluegrass pythium blight, preventive spray on bluegrass seedlings
Sclerotinia sclerotiorum = assay: Test C: cucumber white mold, preventive spray on cucumber seedlings
[1] = system: Colletotrichum orbiculare; assay: Test B: cucumber Colletotrichum anthracnose, preventive spray on cucumber seedlings
Septoria nodorum = assay: Test H: wheat glum blotch, preventive spray on wheat seedlings
Description: (the causal agent of wheat glum blotch) and incubated in a saturated atmosphere at 20° C. for 48 h, and then moved to a growth chamber at 22° C. for 5 days, after which disease ratings were made.

[2] = system: Erysiphe graminis f. sp. tritici; assay: Test L: wheat powdery mildew, preventive spray on wheat seedlings
fusarium graminearium = assay: Test I: wheat head scab, preventive spray on wheat seedlings
Description: (the causal agent of wheat head scab) and incubated in a saturated atmosphere at 20° C. for 72 h, and then moved to a growth chamber at 22° C. for 5 days, after which disease ratings were made.

Phytophthora infestans = assay: whole plant or invertebrate; type: in vivo
Botrytis cinerea = assay: Test E: tomato botrytis, preventive spray on tomato seedlings
[3] = system: Puccinia recondita f. sp. tritici; assay: Test K: wheat leaf rust, preventive spray on wheat seedlings
Septoria tritici = assay: Test J: wheat leaf blotch, preventive spray on wheat seedlings; type: in vivo
Description: A dash (-) indicates no test results.

Rhizoctonia oryzae = assay: Test G: turf brown patch, preventive spray on creeping bent grass seedlings
Description: (the causal agent of turf brown patch) and incubated in a saturated atmosphere at 27° C. for 24 h, and then moved to a growth chamber at 27° C. for 5 days, after which disease ratings were made.

[4] = 40 ppm (marked *), 100 = 100% disease control, 0 = no control
[5] = 200 ppm, 100 = 100% disease control, 0 = no control

SMILES | Test D disease control rating (Plasmopara viticola; 200 ppm) [%] | Test A disease control rating (Pythium aphanidermatum; 200 ppm) [%] | Test C disease control rating (Sclerotinia sclerotiorum; 200 ppm) [%] | Test B disease control rating ([1]; 200 ppm) [%] | Test H disease control rating (Septoria nodorum; 200 ppm) [%] | Test L disease control rating ([2]; 200 ppm) [%] | Test I disease control rating (fusarium graminearium; 200 ppm) [%] | Test F disease control rating (Phytophthora infestans; 200 ppm) [%] | Test E disease control rating (Botrytis cinerea; 200 ppm) [%] | Test K disease control rating ([3]; 200 ppm) [%] | Test J disease control rating (Septoria tritici; 40 ppm (*)) | Test G disease control rating (Rhizoctonia oryzae; 200 ppm) [%] | Test B disease control rating ([1]; 40 ppm (*)) | Test H disease control rating (Septoria nodorum; 40 ppm (*)) | Test L disease control rating ([2]; 40 ppm (*)) | Test E disease control rating (Botrytis cinerea; 40 ppm (*)) | Test K disease control rating ([3]; 40 ppm (*)) | Test G disease control rating (Rhizoctonia oryzae; 40 ppm (*)) | also measured
CC(C)Cn1c(-c2c(Cl)cccc2Cl)c(Cl)nc(-n2cccn2)c1=O [compound 43] | 0 | 0 | 94 | 99 | 100 | 96 | 0 | 0 | 100 | 100 | 100* % | 92 | – | – | – | – | – | – | –
CC(C)Cn1c(-c2c(F)cccc2F)c(Cl)nc(-c2ccccn2)c1=O [Compound 2, 5-Chloro-6-(2,6-difluorophenyl)-1-(2-methylpropyl)-3-(2-pyridinyl)-2(1H)-pyrazinone] | – | – | – | – | – | – | – | – | – | – | – | – | – | – | – | – | – | – | pest or weed control at 200 ppm (Plasmopara viticola; Plasmopara viticola, 168 h, 200 ppm, read-out: Test D disease control rating): 77%; pest or weed control at 200 ppm (Pythium aphanidermatum; Pythium aphanidermatum, 120 h, read-out: Test A disease control rating): 38%; pest or weed control at 200 ppm (Sclerotinia sclerotiorum; Sclerotinia sclerotiorum, in Cucumis sativus, 168 h, read-out: Test C disease control rating, 200 ppm): 97%; pest or weed control at 200 ppm ([1]; Colletotrichum orbiculare, in Cucumis sativus, 144 h, read-out: Test B disease control rating, 200 ppm): 100%; pest or weed control at 200 ppm (Septoria nodorum; Parastagonospora nodorum, in Triticum aestivum, topical, 168 h, read-out: Test H disease control rating, 200 ppm): 100%; pest or weed control at 200 ppm ([2]; Blumeria graminis, in Triticum aestivum, 168 h, read-out: Test L disease control rating, 200 ppm): 100%; pest or weed control at 200 ppm (fusarium graminearium; Fusarium, in Triticum aestivum, topical, 192 h, read-out: Test I disease control rating, 200 ppm): 97%; pest or weed control at 200 ppm (Phytophthora infestans; Phytophthora infestans, in Solanum lycopersicum, topical, 144 h, read-out: Test F disease control rating): 0%; pest or weed control at 200 ppm (Botrytis cinerea; Botrytis cinerea, in Solanum lycopersicum, topical, 72 h, read-out: Test E disease control rating): 100%; pest or weed control at 200 ppm ([3]; Puccinia recondita, in Triticum aestivum, 192 h, read-out: Test K disease control rating): 100%; pest or weed control at 200 ppm (Septoria tritici; Zymoseptoria tritici, 528 h, 200 ppm, read-out: Test J disease control rating): 99%; pest or weed control at 200 ppm (Rhizoctonia oryzae; Waitea circinata, in Agrostis stolonifera, topical, 144 h, read-out: Test G disease control rating, 200 ppm): 100%
CC(C)Cn1c(-c2ccc(Cl)cc2)c(Cl)nc(-n2cncn2)c1=O [compound 23] | 0 | 0 | 0 | 21 | 98 | 0 | 68 | 0 | 99 | 68 | – | 33 | – | – | – | – | – | – | Test J disease control rating (Septoria tritici; 200 ppm): 98%
Cc1ccn(-c2nc(Cl)c(-c3c(F)cccc3F)n(Cc3ccccc3F)c2=O)n1 [compound 280] | – | – | – | – | – | – | – | – | – | – | – | – | – | – | – | – | – | – | Test D disease control rating (Plasmopara viticola; [4]): 0* %; Test A disease control rating (Pythium aphanidermatum; [4]): 0* %; Test C disease control rating (Sclerotinia sclerotiorum; [4]): 0* %; Test B disease control rating [1, 4]: 57* %; Test H disease control rating (Septoria nodorum; [4]): 96* %; Test L disease control rating [2, 4]: 69* %; Test I disease control rating (fusarium graminearium; [4]): 0* %; Test F disease control rating (Phytophthora infestans; [4]): 0* %; Test E disease control rating (Botrytis cinerea; [4]): 99* %; Test K disease control rating [3, 4]: 98* %; Test J disease control rating (Septoria tritici; [4]): 100* %; Test G disease control rating (Rhizoctonia oryzae; [4]): 0* %
COC(=O)c1ccc(-c2c(Cl)nc(-n3cccn3)c(=O)n2CC(C)C)cc1 [compound 147] | 92 | 0 | 0 | 0 | 0 | 0 | 0 | 93 | 97 | 80 | – | 0 | – | – | – | – | – | – | Test J disease control rating (Septoria tritici; 200 ppm): 96%
O=c1c(-n2cccn2)nc(Cl)c(-c2c(F)cccc2F)n1CCF [compound 269] | – | – | – | – | – | – | – | – | – | – | – | – | – | – | – | – | – | – | Test D disease control rating (Plasmopara viticola; [4]): 0* %; Test A disease control rating (Pythium aphanidermatum; [4]): 0* %; Test C disease control rating (Sclerotinia sclerotiorum; [4]): 0* %; Test B disease control rating [1, 4]: 0* %; Test H disease control rating (Septoria nodorum; [4]): 100* %; Test L disease control rating [2, 4]: 0* %; Test I disease control rating (fusarium graminearium; [4]): 0* %; Test F disease control rating (Phytophthora infestans; [4]): 0* %; Test E disease control rating (Botrytis cinerea; [4]): 0* %; Test K disease control rating [3, 4]: 91* %; Test J disease control rating (Septoria tritici; [4]): 99* %; Test G disease control rating (Rhizoctonia oryzae; [4]): 0* %
COc1ccccc1-c1c(Cl)nc(-n2cncn2)c(=O)n1CC(C)C [compound 177] | – | – | – | – | – | – | – | – | – | – | 7* % | – | 0* % | 0* % | 0* % | 0* % | 0* % | 0* % | Test D disease control rating (Plasmopara viticola; 40 ppm (*)): 0* %; Test A disease control rating (Pythium aphanidermatum; 40 ppm (*)): 0* %; Test C disease control rating (Sclerotinia sclerotiorum; 40 ppm (*)): 0* %; Test I disease control rating (fusarium graminearium; 40 ppm (*)): 0* %; Test F disease control rating (Phytophthora infestans; 40 ppm (*)): 0* %
CC(C)Cn1c(-c2ccc3c(c2)OCO3)c(Cl)nc(-n2cncn2)c1=O [compound 114] | 0 | 0 | 0 | – | – | – | 0 | 0 | – | – | 89* % | – | 0* % | 99* % | 0* % | 97* % | 0* % | 0* % | –
CSCCn1c(-c2c(F)cccc2F)c(Cl)nc(-n2cncn2)c1=O [compound 98] | 0 | 0 | 0 | – | – | – | 0 | 0 | – | – | 26* % | – | 0* % | 0* % | 0* % | 0* % | 0* % | 0* % | –
CC(C)Cn1c(C2CCCC2)c(Cl)nc(-n2cccn2)c1=O [compound 290] | – | – | – | – | – | – | – | – | – | – | – | – | – | – | – | – | – | – | Test D disease control rating (Plasmopara viticola; [5]): 0%; Test A disease control rating (Pythium aphanidermatum; [5]): 0%; Test C disease control rating (Sclerotinia sclerotiorum; [5]): 0%; Test B disease control rating [1, 5]: 0%; Test H disease control rating (Septoria nodorum; [5]): 0%; Test L disease control rating [2, 5]: 99%; Test I disease control rating (fusarium graminearium; [5]): 0%; Test F disease control rating (Phytophthora infestans; [5]): 0%; Test E disease control rating (Botrytis cinerea; [5]): 100%; Test K disease control rating [3, 5]: 100%; Test J disease control rating (Septoria tritici; [5]): 100%; Test G disease control rating (Rhizoctonia oryzae; [5]): 77%

From patent US20080194585A1, “Fungicidal Pyrazine Derivatives” (priority 2005, published 2008)
